Laboratory results taken from patent US6706663B2, “Herbicidal 3-heterocyclic substituted benzisothiazole and benzisoxazole compounds” (Wyeth, priority 2000, dated 2004).

Key:
CYPIR (Cyperus iria) = assay: Flooded paddy, preemergence weed control; type: in vivo; details: rated 3-4 weeks after treatment, 0-9 rating scale
How it was run: (§1)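 In this preemergence paddy assay, weed seeds or organs are sown at up to 0.5 cm in silt loam and covered by 1.5–3 cm of water for the full test period. After treatment the pots are kept in a greenhouse, and herbicidal effect is rated 0-9 visually against a control.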

ZEAMX (Corn, Field) = assay: Preemergence herbicidal evaluation; type: in vivo, Zea mays, L.; details: rated 4-5 weeks after treatment
GALAP (Galium aparine) = assay: Postemergence herbicidal evaluation; type: in vivo; details: postemergence
How it was run: (§2)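 Visual 0–9 injury scores versus control plants, covering stand, vigour, malformation, size, chlorosis and general appearance, taken four to five weeks post-spray and averaged over replicate tests. Plants were sprayed at roughly two weeks old and held on greenhouse benches.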

[1] = tested on: IPOHE (Ipomoea hederacea); assay: Preemergence herbicidal evaluation; type: in vivo, (L.) Jacq.; details: rated 4-5 weeks after treatment
[2] = tested on: SAGPY (Sagittaria pygmaea); assay: Flooded paddy, preemergence weed control; type: in vivo, L.; details: rated 3-4 weeks after treatment, 0-9 rating scale
How it was run: as §1

GLXMA (Soybean) = assay: Preemergence herbicidal evaluation; type: in vivo, Glycine max, (L.) Merr.; details: preemergence, rated 4-5 weeks after treatment
[3] = tested on: GLXMAW (Soybean, Williams); assay: Preemergence herbicidal evaluation; type: in vivo, Glycine max, (L.) Merr. cv Williams; details: rated 4-5 weeks after treatment
[4] = tested on: ABUTH (Abutilon theophrasti); assay: Postemergence herbicidal evaluation; type: in vivo, Medic.; details: postemergence
How it was run: as §2

[5] = tested on: CASOB (Cassia obtusifolia); assay: Postemergence herbicidal evaluation; type: in vivo, L.; details: postemergence
How it was run: as §2

[6] = tested on: AMBEL (Ambrosia artemisifolia); assay: Postemergence herbicidal evaluation; type: in vivo, L.; details: postemergence
How it was run: as §2

[7] = tested on: CHEAL (Chenopodium album); assay: Postemergence herbicidal evaluation; type: in vivo, L.; details: postemergence
How it was run: as §2

ORYSAT (Rice, Tebonnet) [8] = assay: Flooded paddy, post-transplant rice tolerance; type: in vivo, Oryza sativa, (L.) Tebonnet; details: flooded paddy, post-transplant rice, rated 3-4 weeks after treatment, 0-9 rating scale
How it was run: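 Ten-day-old seedlings, 2/pot, silt loam; flood kept 1.5–3 cm over soil; herbicide applied post-transplant; greenhouse; score 0–9 visual vs control.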

[9] = tested on: ECHORC (Echinochloa oryzoides); assay: Flooded paddy, postemergence weed control; type: in vivo, Echinochloa oryzoides (Ard.) Fritsch.; details: postemergence weeds, rated 3-4 weeks after treatment
Description: (§3) Results of herbicide evaluation are expressed on a rating scale (0-9). The scale is based upon a visual observation of plant stand, vigor, malformation, size, chlorosis and overall plant appearance as compared with a control.
(§4) Plastic containers containing weeds which are 3 to 5 cm tall and rice seedlings at the 1.5 to 2.5 leaf stage are flooded with water. The water is maintained at 1.5 to 3 cm above the soil surface for the duration of the experiment. Test compounds are applied as aqueous/acetone mixtures 50/50 v/v directly into the flood water to provide the equivalent of about 0.0320 to 0.2500 kg/ha of active ingredient. The treated containers are placed on greenhouse benches and cared for in accordance with conventional greenhouse procedures. Three to four weeks after treatment, the test is terminated and each container is examined and herbicidal effect rated according to the rating system provided in Example 87. The compounds evaluated are identified in Example 87 and plant species used are identified in Example 89.

[10] = tested on: SAGPY (Sagittaria pygmaea); assay: Flooded paddy, postemergence weed control; type: in vivo, L.; details: postemergence weeds, rated 3-4 weeks after treatment
Description: as §3, §4

[11] = tested on: MOOVA (Monochoria vaginalis); assay: Flooded paddy, postemergence weed control; type: in vivo, Presl.; details: postemergence weeds, rated 3-4 weeks after treatment
Description: as §3, §4

ORYSAT (Rice, Tebonnet) [12] = assay: Flooded paddy, post-transplant and postemergence rice tolerance; type: in vivo, Oryza sativa, (L.) Tebonnet; details: post-transplant rice, rated 3-4 weeks after treatment
Description: as §3, §4

[13] = tested on: CYPSE (Cyperus serotinus); assay: Flooded paddy, postemergence weed control; type: in vivo, Rottb.; details: postemergence weeds, rated 3-4 weeks after treatment
Description: as §3, §4

[14] = preemergence, rate 0.0620 kg/ha
[15] = preemergence, rate 0.1250 kg/ha
[16] = preemergence, rate 0.2500 kg/ha

Cn1c(C(F)(F)F)cc(=O)n(-c2ccc3snc(C4OCC(CS(C)(=O)=O)O4)c3c2)c1=O (single isomer, unassigned) [Compound 86, 1-methyl-3-[3-[4-[(methylsulfonyl)methyl]-1,3-dioxolan-2-yl]-1,2-benzisothiazol-5-yl]-6-(trifluoromethyl)uracil]
9.0: Preemergence herbicidal rating ZEAMX (ZEAMX (Corn, Field); [16]) | GALAP herbicidal rating (GALAP (Galium aparine); rate 0.0320 kg/ha) | GALAP herbicidal rating (GALAP (Galium aparine); rate 0.0620 kg/ha) | Preemergence herbicidal rating IPOHE [1, 15] | Preemergence herbicidal rating IPOHE [1, 16] | Preemergence herbicidal rating GLXMA (GLXMA (Soybean); rate 0.1250 kg/ha) | Preemergence herbicidal rating GLXMA (GLXMA (Soybean); rate 0.2500 kg/ha) | Preemergence herbicidal rating GLXMAW [3, 15] | Preemergence herbicidal rating GLXMAW [3, 16] | ABUTH herbicidal rating ([4]; rate 0.0320 kg/ha) | ABUTH herbicidal rating ([4]; rate 0.0620 kg/ha) | CASOB herbicidal rating ([5]; rate 0.0620 kg/ha) | AMBEL herbicidal rating ([6]; rate 0.0320 kg/ha) | AMBEL herbicidal rating ([6]; rate 0.0620 kg/ha) | CHEAL herbicidal rating ([7]; rate 0.0320 kg/ha) | CHEAL herbicidal rating ([7]; rate 0.0620 kg/ha)
7.0: Preemergence herbicidal rating GLXMAW [3, 14] | CASOB herbicidal rating ([5]; rate 0.0320 kg/ha)
5.0: Preemergence herbicidal rating ZEAMX (ZEAMX (Corn, Field); [14]) | Preemergence herbicidal rating GLXMA (GLXMA (Soybean); rate 0.0620 kg/ha) | ORYSAT herbicidal rating (transplanted rice tolerance) (ORYSAT (Rice, Tebonnet) [8]; rate 0.1250 kg/ha)
0.0: CYPIR herbicidal rating (CYPIR (Cyperus iria); rate 0.0320 kg/ha) | CYPIR herbicidal rating (CYPIR (Cyperus iria); rate 0.1250 kg/ha) | SAGPY herbicidal rating ([2]; rate 0.0320 kg/ha) | SAGPY herbicidal rating ([2]; rate 0.1250 kg/ha) | ORYSAT herbicidal rating (transplanted rice tolerance) (ORYSAT (Rice, Tebonnet) [8]; rate 0.0320 kg/ha)
8.0: Preemergence herbicidal rating ZEAMX (ZEAMX (Corn, Field); [15])
4.0: Preemergence herbicidal rating IPOHE [1, 14]

Cn1c(C(F)(F)F)cc(=O)n(-c2ccc3snc(C4OCC(CS(C)(=O)=O)O4)c3c2)c1=O (single isomer, unassigned) [Compound 87, 1-methyl-3-[3-[4-[(methylsulfonyl)methyl]-1,3-dioxolan-2-yl]-1,2-benzisothiazol-5-yl]-6-(trifluoromethyl)uracil]
8.0: Preemergence herbicidal rating ZEAMX (ZEAMX (Corn, Field); [15])
8.5: Preemergence herbicidal rating ZEAMX (ZEAMX (Corn, Field); [16])
5.5: Preemergence herbicidal rating ZEAMX (ZEAMX (Corn, Field); [14])
6.0: Preemergence herbicidal rating IPOHE [1, 15]
0.0: CYPIR herbicidal rating (CYPIR (Cyperus iria); rate 0.0320 kg/ha) | SAGPY herbicidal rating ([2]; rate 0.0320 kg/ha) | SAGPY herbicidal rating ([2]; rate 0.1250 kg/ha) | ORYSAT herbicidal rating (transplanted rice tolerance) (ORYSAT (Rice, Tebonnet) [8]; rate 0.0320 kg/ha)
3.0: ORYSAT herbicidal rating (transplanted rice tolerance) (ORYSAT (Rice, Tebonnet) [8]; rate 0.1250 kg/ha)
5.0: CYPIR herbicidal rating (CYPIR (Cyperus iria); rate 0.1250 kg/ha) | Preemergence herbicidal rating IPOHE [1, 14]
9.0: GALAP herbicidal rating (GALAP (Galium aparine); rate 0.0320 kg/ha) | GALAP herbicidal rating (GALAP (Galium aparine); rate 0.0620 kg/ha) | Preemergence herbicidal rating IPOHE [1, 16] | Preemergence herbicidal rating GLXMA (GLXMA (Soybean); rate 0.0620 kg/ha) | Preemergence herbicidal rating GLXMA (GLXMA (Soybean); rate 0.1250 kg/ha) | Preemergence herbicidal rating GLXMA (GLXMA (Soybean); rate 0.2500 kg/ha) | Preemergence herbicidal rating GLXMAW [3, 14] | Preemergence herbicidal rating GLXMAW [3, 15] | Preemergence herbicidal rating GLXMAW [3, 16] | ABUTH herbicidal rating ([4]; rate 0.0320 kg/ha) | ABUTH herbicidal rating ([4]; rate 0.0620 kg/ha) | CASOB herbicidal rating ([5]; rate 0.0320 kg/ha) | CASOB herbicidal rating ([5]; rate 0.0620 kg/ha) | AMBEL herbicidal rating ([6]; rate 0.0320 kg/ha) | AMBEL herbicidal rating ([6]; rate 0.0620 kg/ha) | CHEAL herbicidal rating ([7]; rate 0.0320 kg/ha) | CHEAL herbicidal rating ([7]; rate 0.0620 kg/ha)

Cn1c(C(F)(F)F)cc(=O)n(-c2ccc3snc(C4OC(C)(C)C(C)(C)O4)c3c2)c1=O [Compound 56, 1-methyl-3-[3-(4,4,5,5-tetramethyl-1,3-dioxolan-2-yl)-1,2-benzisothiazol-5-yl]-6-(trifluoromethyl)uracil]
7.0: Preemergence herbicidal rating ZEAMX (ZEAMX (Corn, Field); Rate 0.0620 kg/ha) | Preemergence herbicidal rating ZEAMX (ZEAMX (Corn, Field); Rate 0.1250 kg/ha) | herbicide rating (0-9) MOOVA ([11]; 0.1250 kg/ha into flood water) | herbicide rating (0-9) ORYSAT (rice tolerance) (ORYSAT (Rice, Tebonnet) [12]; 0.0320 kg/ha into flood water) | herbicide rating (0-9) ORYSAT (rice tolerance) (ORYSAT (Rice, Tebonnet) [12]; 0.0620 kg/ha into flood water) | CASOB herbicidal rating ([5]; rate 0.0620 kg/ha) | CHEAL herbicidal rating ([7]; rate 0.0320 kg/ha)
0.0: herbicidal rating, SAGPY ([2]; rate 0.0080 kg/ha) | herbicidal rating, SAGPY ([2]; rate 0.0320 kg/ha) | herbicide rating (0-9) SAGPY ([10]; 0.0320 kg/ha into flood water) | herbicide rating (0-9) SAGPY ([10]; 0.0620 kg/ha into flood water) | herbicide rating (0-9) CYPSE ([13]; 0.0620 kg/ha into flood water)
6.0: herbicidal rating, CYPIR (CYPIR (Cyperus iria); rate 0.0080 kg/ha)
3.0: GALAP herbicidal rating (GALAP (Galium aparine); rate 0.0320 kg/ha) | GALAP herbicidal rating (GALAP (Galium aparine); rate 0.0620 kg/ha) | CASOB herbicidal rating ([5]; rate 0.0320 kg/ha)
7.5: Preemergence herbicidal rating IPOHE ([1]; Rate 0.0620 kg/ha) | Preemergence herbicidal rating IPOHE ([1]; Rate 0.1250 kg/ha) | Preemergence herbicidal rating GLXMAW ([3]; Rate 0.0620 kg/ha)
9.0: herbicidal rating, CYPIR (CYPIR (Cyperus iria); rate 0.1250 kg/ha) | Preemergence herbicidal rating IPOHE ([1]; Rate 0.2500 kg/ha) | herbicide rating (0-9) ECHORC ([9]; 0.0320 kg/ha into flood water) | herbicide rating (0-9) ECHORC ([9]; 0.0620 kg/ha into flood water) | herbicide rating (0-9) ECHORC ([9]; 0.1250 kg/ha into flood water) | Preemergence herbicidal rating GLXMAW ([3]; Rate 0.1250 kg/ha) | Preemergence herbicidal rating GLXMAW ([3]; Rate 0.2500 kg/ha) | herbicide rating (0-9) ORYSAT (rice tolerance) (ORYSAT (Rice, Tebonnet) [12]; 0.1250 kg/ha into flood water) | herbicide rating (0-9) CYPSE ([13]; 0.1250 kg/ha into flood water) | ABUTH herbicidal rating ([4]; rate 0.0320 kg/ha) | ABUTH herbicidal rating ([4]; rate 0.0620 kg/ha) | AMBEL herbicidal rating ([6]; rate 0.0320 kg/ha) | AMBEL herbicidal rating ([6]; rate 0.0620 kg/ha) | CHEAL herbicidal rating ([7]; rate 0.0620 kg/ha)
4.0: herbicide rating (0-9) MOOVA ([11]; 0.0620 kg/ha into flood water)
8.0: herbicidal rating, CYPIR (CYPIR (Cyperus iria); rate 0.0320 kg/ha) | Preemergence herbicidal rating ZEAMX (ZEAMX (Corn, Field); Rate 0.2500 kg/ha) | herbicidal rating, ORYSAT (rice tolerance) (ORYSAT (Rice, Tebonnet) [8]; rate 0.1250 kg/ha)
2.0: herbicide rating (0-9) SAGPY ([10]; 0.1250 kg/ha into flood water) | herbicide rating (0-9) MOOVA ([11]; 0.0320 kg/ha into flood water)
6.3: herbicidal rating, SAGPY ([2]; rate 0.1250 kg/ha)
1.0: herbicidal rating, ORYSAT (rice tolerance) (ORYSAT (Rice, Tebonnet) [8]; rate 0.0080 kg/ha)
4.3: herbicidal rating, ORYSAT (rice tolerance) (ORYSAT (Rice, Tebonnet) [8]; rate 0.0320 kg/ha)
